# Laboratory results published in US20140088052A1, “CHALCONE DERIVATIVES AS NRF2 ACTIVATORS” (THE JOHNS HOPKINS UNIVERSITY, priority 2011, published 2014).
# Tested on: Nrf2
# Experiment: Expression of Nrf2-regulated genes GCLM and NQO1 by qRT-PCR in Beas-2B cells (screen)
# Format: cell-based, human
# Details: Homo sapiens, BEAS-2B, 16 h, DMSO = 1.0 (Table 2), read-out: Relative Fold Change GCLM
# Description: To investigate the potency of the presently disclosed chalcone derivatives to activate Nrf2, the expression of antioxidant genes, GCLM and NADPH-NQO1, two well characterized transcriptional targets of Nrf2, were measured as surrogate markers. By “marker” is meant any protein or polynucleotide having an alteration in expression level or activity that is associated with a disease, disorder, or condition. It has been previously shown that oxidants or small molecule activators of Nrf2 increase GCLM and NQO1 in cells or tissues of wild-type, but not in Nrf2-deficient mice. Osburn, W. O., et al., Genetic or pharmacologic amplification of Nrf2 signaling inhibits acute inflammatory liver injury in mice. Toxicol. Sci. 2008, 104(1), 218-227. […]
# RNA was isolated and gene expression was measured after 16 h.
# Total RNA was extracted from cells/tissue using Qiagen RNeasy kit (Qiagen Corporation, Valencia, Calif.) and reverse transcription was performed by using random hexamers and MultiScribe reverse transcriptase according to the manufacturer's recommendations (Applied Biosystems, Foster City, Calif., USA). Quantitative real-time RT-PCR analyses of Nrf2, NQO1, HO1, and GCLM were performed by using Assay-on-Demand primers and probe sets from Applied Biosystems. Assays were performed using the ABI 7000 Taqman system (Applied Biosystems, Foster City, Calif.). β-actin was used for normalization.
row,SMILES,fold induction at 10 µM
1,"COc1ccc(C(=O)/C=C/c2ccccc2C(F)(F)F)c(OC)c1 [Compound 2e, (E)-1-(2,4-dimethoxyphenyl)-3-(2-(trifluoromethyl)phenyl)prop-2-en-1-one]",5.4
2,"COc1cccc(OC)c1C(=O)/C=C/c1ccccc1C(F)(F)F [Compound 2f, (E)-1-(2,6-dimethoxyphenyl)-3-(2-(trifluoromethyl)phenyl)prop-2-en-1-one]",5.7
3,"COc1cc(OC)cc(C(=O)/C=C/c2ccccc2C(F)(F)F)c1 [Compound 2i, (E)-1-(3,5-dimethoxyphenyl)-3-(2-(trifluoromethyl)phenyl)prop-2-en-1-one]",4
4,"COc1ccc(C(=O)/C=C/c2ccccc2C(F)(F)F)c(OC)c1OC [Compound 2k, (E)-1-(2,3,4-trimethoxyphenyl)-3-(2-(trifluoromethyl)phenyl)prop-2-en-1-one]",5.4
5,"COc1cc(OC)c(C(=O)/C=C/c2ccccc2C(F)(F)F)c(OC)c1 [Compound 2l, (E)-1-(2,4,6-trimethoxyphenyl)-3-(2-(trifluoromethyl)phenyl)prop-2-en-1-one]",4.4
6,"COc1cccc(C(=O)/C=C/c2cccc(C(F)(F)F)c2)c1 [Compound 3c, (E)-1-(3-methoxyphenyl)-3-(3-(trifluoromethyl)phenyl)prop-2-en-1-one]",4.6
7,"COc1cc(OC)cc(C(=O)/C=C/c2cccc(C(F)(F)F)c2)c1 [Compound 3i, (E)-1-(3,5-dimethoxyphenyl)-3-(3-(trifluoromethyl)phenyl)prop-2-en-1-one]",3.8
8,"COc1ccccc1C(=O)/C=C/c1ccc(C(F)(F)F)cc1 [Compound 4b, (E)-1-(2-methoxyphenyl)-3-(4-(trifluoromethyl)phenyl)prop-2-en-1-one]",4.3

# Same assay, conditions: Homo sapiens, BEAS-2B, 16 h, DMSO = 1.0 (Table 2), read-out: Relative Fold Change NQO1
row,SMILES,fold induction at 10 µM
1,"COc1ccc(C(=O)/C=C/c2ccccc2C(F)(F)F)c(OC)c1 [Compound 2e, (E)-1-(2,4-dimethoxyphenyl)-3-(2-(trifluoromethyl)phenyl)prop-2-en-1-one]",4.5
2,"COc1cccc(OC)c1C(=O)/C=C/c1ccccc1C(F)(F)F [Compound 2f, (E)-1-(2,6-dimethoxyphenyl)-3-(2-(trifluoromethyl)phenyl)prop-2-en-1-one]",5.3
3,"COc1cc(OC)cc(C(=O)/C=C/c2ccccc2C(F)(F)F)c1 [Compound 2i, (E)-1-(3,5-dimethoxyphenyl)-3-(2-(trifluoromethyl)phenyl)prop-2-en-1-one]",3.7
4,"COc1ccc(C(=O)/C=C/c2ccccc2C(F)(F)F)c(OC)c1OC [Compound 2k, (E)-1-(2,3,4-trimethoxyphenyl)-3-(2-(trifluoromethyl)phenyl)prop-2-en-1-one]",4.1
5,"COc1cc(OC)c(C(=O)/C=C/c2ccccc2C(F)(F)F)c(OC)c1 [Compound 2l, (E)-1-(2,4,6-trimethoxyphenyl)-3-(2-(trifluoromethyl)phenyl)prop-2-en-1-one]",4.3
6,"COc1cccc(C(=O)/C=C/c2cccc(C(F)(F)F)c2)c1 [Compound 3c, (E)-1-(3-methoxyphenyl)-3-(3-(trifluoromethyl)phenyl)prop-2-en-1-one]",3.5
7,"COc1cc(OC)cc(C(=O)/C=C/c2cccc(C(F)(F)F)c2)c1 [Compound 3i, (E)-1-(3,5-dimethoxyphenyl)-3-(3-(trifluoromethyl)phenyl)prop-2-en-1-one]",3.9
8,"COc1ccccc1C(=O)/C=C/c1ccc(C(F)(F)F)cc1 [Compound 4b, (E)-1-(2-methoxyphenyl)-3-(4-(trifluoromethyl)phenyl)prop-2-en-1-one]",5.4

# Same assay, conditions: Homo sapiens, BEAS-2B, 16 h, DMSO = 1 (Table 3), read-out: Relative Fold Change GCLM
row,SMILES,fold induction at 10 µM
1,"COc1ccc(C(=O)/C=C/c2ccccc2C(F)(F)F)c(OC)c1 [Compound 2e, (E)-1-(2,4-dimethoxyphenyl)-3-(2-(trifluoromethyl)phenyl)prop-2-en-1-one]",5.4
2,"COc1cccc(OC)c1C(=O)/C=C/c1ccccc1C(F)(F)F [Compound 2f, (E)-1-(2,6-dimethoxyphenyl)-3-(2-(trifluoromethyl)phenyl)prop-2-en-1-one]",5.7
3,"COc1cc(OC)cc(C(=O)/C=C/c2ccccc2C(F)(F)F)c1 [Compound 2i, (E)-1-(3,5-dimethoxyphenyl)-3-(2-(trifluoromethyl)phenyl)prop-2-en-1-one]",4
4,"COc1ccc(C(=O)/C=C/c2ccccc2C(F)(F)F)c(OC)c1OC [Compound 2k, (E)-1-(2,3,4-trimethoxyphenyl)-3-(2-(trifluoromethyl)phenyl)prop-2-en-1-one]",5.4
5,"COc1cc(OC)c(C(=O)/C=C/c2ccccc2C(F)(F)F)c(OC)c1 [Compound 2l, (E)-1-(2,4,6-trimethoxyphenyl)-3-(2-(trifluoromethyl)phenyl)prop-2-en-1-one]",4.4
6,"COc1cccc(C(=O)/C=C/c2cccc(C(F)(F)F)c2)c1 [Compound 3c, (E)-1-(3-methoxyphenyl)-3-(3-(trifluoromethyl)phenyl)prop-2-en-1-one]",4.6
7,"COc1cc(OC)cc(C(=O)/C=C/c2cccc(C(F)(F)F)c2)c1 [Compound 3i, (E)-1-(3,5-dimethoxyphenyl)-3-(3-(trifluoromethyl)phenyl)prop-2-en-1-one]",3.8
8,"COc1ccccc1C(=O)/C=C/c1ccc(C(F)(F)F)cc1 [Compound 4b, (E)-1-(2-methoxyphenyl)-3-(4-(trifluoromethyl)phenyl)prop-2-en-1-one]",4.3

# Same assay, conditions: Homo sapiens, BEAS-2B, 16 h, DMSO = 1 (Table 3), read-out: Relative Fold Change NQO1
row,SMILES,fold induction at 10 µM
1,"COc1ccc(C(=O)/C=C/c2ccccc2C(F)(F)F)c(OC)c1 [Compound 2e, (E)-1-(2,4-dimethoxyphenyl)-3-(2-(trifluoromethyl)phenyl)prop-2-en-1-one]",4.5
2,"COc1cccc(OC)c1C(=O)/C=C/c1ccccc1C(F)(F)F [Compound 2f, (E)-1-(2,6-dimethoxyphenyl)-3-(2-(trifluoromethyl)phenyl)prop-2-en-1-one]",5.3
3,"COc1cc(OC)cc(C(=O)/C=C/c2ccccc2C(F)(F)F)c1 [Compound 2i, (E)-1-(3,5-dimethoxyphenyl)-3-(2-(trifluoromethyl)phenyl)prop-2-en-1-one]",3.7
4,"COc1ccc(C(=O)/C=C/c2ccccc2C(F)(F)F)c(OC)c1OC [Compound 2k, (E)-1-(2,3,4-trimethoxyphenyl)-3-(2-(trifluoromethyl)phenyl)prop-2-en-1-one]",4.1
5,"COc1cc(OC)c(C(=O)/C=C/c2ccccc2C(F)(F)F)c(OC)c1 [Compound 2l, (E)-1-(2,4,6-trimethoxyphenyl)-3-(2-(trifluoromethyl)phenyl)prop-2-en-1-one]",4.3
6,"COc1cccc(C(=O)/C=C/c2cccc(C(F)(F)F)c2)c1 [Compound 3c, (E)-1-(3-methoxyphenyl)-3-(3-(trifluoromethyl)phenyl)prop-2-en-1-one]",3.5
7,"COc1cc(OC)cc(C(=O)/C=C/c2cccc(C(F)(F)F)c2)c1 [Compound 3i, (E)-1-(3,5-dimethoxyphenyl)-3-(3-(trifluoromethyl)phenyl)prop-2-en-1-one]",3.9
8,"COc1ccccc1C(=O)/C=C/c1ccc(C(F)(F)F)cc1 [Compound 4b, (E)-1-(2-methoxyphenyl)-3-(4-(trifluoromethyl)phenyl)prop-2-en-1-one]",5.4

# Tested on: Beas-2B cells
# Experiment: Cell viability / cytotoxicity (MTT assay) in Beas-2B cells
# Format: cell-based, human
# Details: 24 h, DMSO = 100
# Description: Concurrent with the gene expression analysis, the cytotoxicity of the chalcone derivatives was determined using the MTT assay.
# Mad. Chem. 2007, 15, 2952-2962. […] Four hours before the end of incubation, the medium was removed and 100 μL of MTT (5 mg/mL in serum free medium) was added to each well. The MTT was removed after 4 h, cells were washed with PBS, and 100 μL DMSO was added to each well to dissolve the water-insoluble MTT-formazan crystals. The absorbance was recorded at 570 nm in a plate reader (Molecular Devices, Sunnyvale, Calif.).
row,SMILES,% Cell Viability [%]
1,"COc1ccc(C(=O)/C=C/c2ccccc2C(F)(F)F)c(OC)c1 [Compound 2e, (E)-1-(2,4-dimethoxyphenyl)-3-(2-(trifluoromethyl)phenyl)prop-2-en-1-one]",105
2,"COc1cccc(OC)c1C(=O)/C=C/c1ccccc1C(F)(F)F [Compound 2f, (E)-1-(2,6-dimethoxyphenyl)-3-(2-(trifluoromethyl)phenyl)prop-2-en-1-one]",101.1
3,"COc1cc(OC)cc(C(=O)/C=C/c2ccccc2C(F)(F)F)c1 [Compound 2i, (E)-1-(3,5-dimethoxyphenyl)-3-(2-(trifluoromethyl)phenyl)prop-2-en-1-one]",87.1
4,"COc1ccc(C(=O)/C=C/c2ccccc2C(F)(F)F)c(OC)c1OC [Compound 2k, (E)-1-(2,3,4-trimethoxyphenyl)-3-(2-(trifluoromethyl)phenyl)prop-2-en-1-one]",101.6
5,"COc1cc(OC)c(C(=O)/C=C/c2ccccc2C(F)(F)F)c(OC)c1 [Compound 2l, (E)-1-(2,4,6-trimethoxyphenyl)-3-(2-(trifluoromethyl)phenyl)prop-2-en-1-one]",145.3
6,"COc1cccc(C(=O)/C=C/c2cccc(C(F)(F)F)c2)c1 [Compound 3c, (E)-1-(3-methoxyphenyl)-3-(3-(trifluoromethyl)phenyl)prop-2-en-1-one]",95.3
7,"COc1cc(OC)cc(C(=O)/C=C/c2cccc(C(F)(F)F)c2)c1 [Compound 3i, (E)-1-(3,5-dimethoxyphenyl)-3-(3-(trifluoromethyl)phenyl)prop-2-en-1-one]",108.2
8,"COc1ccccc1C(=O)/C=C/c1ccc(C(F)(F)F)cc1 [Compound 4b, (E)-1-(2-methoxyphenyl)-3-(4-(trifluoromethyl)phenyl)prop-2-en-1-one]",91
